US20130224239A1, “ALCOHOLIC EXTRACT OF FUNGI OF GENUS […] AND USE THEREOF” (KING SAUD UNIVERSITY, priority 2011, published 2013)
Marks after values point to notes of the source that are not given here.

Assays:
[1] = tested on: Aspergillus fumigatus (RCMB 2003); test: Antimicrobial screening, disc diffusion; assay type: cell-based; conditions: for zone of inhibition at 1000 µg/mL: RCMB2003, Standard Antibiotics (1 mg/ml), read-out: Diameter of inhibition zone; for Diameter of inhibition zone: compounds isolated from Cunninghamella elegans
Description: (§1) The alcoholic extracts obtained were used for testing their antimicrobial activity. Each extract (0.5 g) was dissolved in 10 ml water. Same concentrations for the successive extracts (using diethyl ether, chloroform, ethyl acetate and n-butanol) were also prepared.
(§2) The representatives of Gram negative bacteria, namely Salmonella typhimuium (RCMB 0104), Escherichia coli (RCMB 0103), Pseudomonas aeruginosa (RCMB 0102) and Gram positive bacteria, namely Bacillus subtilis (RCMB 0107), Staphylococcus aureus (RCMB 0106), Streptococcus pyogenes (RCMB 0109), unicellular fungi, namely Candida albicans (RCMB 5002) and filamentous fungi, namely Aspergillus fumigatus (RCMB 2003) and Penicllium expansum (RCMB 1006) were used as test organisms (RCMB: The Regional Center for Mycology and Biotechnology, Al-azhar University Nasser City, Cairo, Egypt).
(§3) For antimicrobial screening the well known disc diffusion and agar well diffusion methods were used, together with the determination of minimum inhibitory concentration (MIC), see Duguid et al., Microbial Infections, The English Language Book Society, Churchill Livingston, Edingburgh, London, 1978; vol. 1, page 110.
(§4) Disc diffusion method: The agar disc diffusion method is employed for the determination of antimicrobial activities of the extracts of the investigated fungal species. Sterilized paper discs (Whatman No. 1) ([…]) were separately soaked in the extracts and transferred onto the surface of growth media seeded with the test organism. After incubation period, following suitable conditions for the test organism, the diameter of the inhibition zone around the discs was measured in millimeters. The obtained result was the mean of three experiments.
(§5) Each fungal species was grown on malt extract media at 28±2° C. for 14 days. The metabolites of the fungal species were screened for antimicrobial activity. The inhibition zones around each disc were measured, in millimeter, and recorded (Tables 1).

[2] = tested on: Candida albicans (RCMB 5002); test: Antimicrobial screening, disc diffusion; assay type: cell-based; conditions: for zone of inhibition at 1000 µg/mL: RCMB5002, Standard Antibiotics (1 mg/ml), read-out: Diameter of inhibition zone; for Diameter of inhibition zone: compounds isolated from Cunninghamella elegans
Description: as §1, §2, §3, §4, §5

[3] = tested on: Penicllium expansum (RCMB 1006); test: Antimicrobial screening, disc diffusion; assay type: cell-based; conditions: Penicillium expansum; for zone of inhibition at 1000 µg/mL: RCMB1006, Standard Antibiotics (1 mg/ml), read-out: Diameter of inhibition zone; for Diameter of inhibition zone: compounds isolated from Cunninghamella elegans
Description: as §1, §2, §3, §4, §5

[4] = tested on: Escherichia coli (RCMB 0103); test: Antimicrobial screening, disc diffusion; assay type: cell-based
Description: as §1, §2, §3, §4, §5

[5] = tested on: Staphylococcus aureus (RCMB 0106); test: Antimicrobial screening, disc diffusion; assay type: cell-based
Description: as §1, §2, §3, §4, §5

[6] = tested on: Pseudomonas aeruginosa (RCMB 0102); test: Antimicrobial screening, disc diffusion; assay type: cell-based; conditions: Pseudomonas aeurginosa
Description: as §1, §2, §3, §4, §5

[7] = tested on: Bacillus subtilis (RCMB 0107); test: Antimicrobial screening, disc diffusion; assay type: cell-based
Description: as §1, §2, §3, §4, §5

[8] = tested on: Streptococcus pyogenes (RCMB 0109); test: Antimicrobial screening, disc diffusion; assay type: cell-based
Description: as §1, §2, §3, §4, §5

[9] = tested on: Salmonella typhimuium (RCMB 0104); test: Antimicrobial screening, disc diffusion; assay type: cell-based; conditions: Salmonella typhimuim
Description: as §1, §2, §3
Disc diffusion method: The agar disc diffusion method is employed for the determination of antimicrobial activities of the extracts of the investigated fungal species. Sterilized paper discs (Whatman No. 1) ([…]) were separately soaked in the extracts and transferred onto the surface of growth media seeded with the test organism. After incubation period, following suitable conditions for the test organism, the diameter of the inhibition zone around the discs was measured in millimeters.
Each fungal species was grown on malt extract media at 28±2° C. for 14 days. The metabolites of the fungal species were screened for antimicrobial activity.

[10] = tested on: Staphylococcus aureus infected wounds; test: Wound healing activity, excision wound model; assay type: in vivo, guinea pig
Description: Swiss albino mice (20-25 g), male Sprague-Dawley rats (160-180 g) and male guinea pigs (240-260 g) were employed in the study. The animals were left for 2 weeks at room conditions to ensure stabilization before use. They were maintained on standard pellet diet and water ad libitum throughout the experiment. • a) Acute Toxicity: Mice were divided into groups of 6 and the methanol extracts of C. blakesleeana, C. elegans and C. homothallica were administered orally in increasing doses. […] Rats of the 1^St group were given a vehicle (1% v/v Tween 80) in a dose of 5 ml kg^−1 and left as normal control. Rats of the 2nd, 3rd, and 4th groups were administered the methanol extracts of C. blakesleeana, C. elegans and C. homothallica, respectively in a dose of 200 mg kg^−1. All medications were administered orally via the aid of an oral tube for 35 days. […] At the end of the experimental period, blood samples (2 mL) were collected from the retro-orbital venous plexus of each rat (under ether anesthesia) into clean centrifuge tubes. The blood samples were allowed to clot at room temperature for 30 min after which they were centrifuged at 10,000 rpm for 5 minutes. Sera were separate with Pasteur pipette into sterile serum sample tubes and used for biochemical assay.
Measurement of Liver and Kidney Function Markers: • Liver functions were evaluated by measuring the serum activity of aspartate aminotransferase (AST) and alanine aminotransferase (ALT) following the method of Reitman and Frankel, Am. J. Clin. Path., 28: 55-60, alkaline phosphatase enzyme (ALP) by the method of Babson et al., Clinical Chemistry, 12: 482-490. Serum levels of total bilirubin, total proteins and albumin were also assayed. Globulin was obtained from the difference between total proteins and albumin. Serum concentrations of uric acid, urea and creatinine were determined colormetrically as measures of kidney functions. All measurements were carried out by protocols well known in the art. • c) Wound Healing Activity: The excision wound model was used to monitor wound contraction and wound closure time. Four groups of male guinea pigs were used in the experiment with 6 animals in each group. At the beginning of the experiment, the dorsal skin of each guinea pig was shaved with an electric clipper. After 24 hours, all animals were anesthetized by diethyl ether and the shaved areas were sterilized with 70% alcoholic solution. A predetermined dorsal area (15 mm×20 mm) was inflicted by cutting away a full thickness of skin (2 mm depth) using toothed forceps, scalpel and pointed scissors. A fresh surgical blade was used for the perpendicular cut in each animal and tension of skin was kept constant during the procedure. Local infection with Staphylococcus aureus was introduced into wounds using 0.5 mL of 10^8 bacteria mL^−1 inoculums. The wounds were left undressed to the open environment and the animals were kept individually in separate cages. • Wounds treatment: Wounds were air exposed and treatment began 24 h after injury. Wounds of the control animals were treated with the vehicle (1% v/v Tween 80). Guinea pigs of the second and third group were treated with total alcohol extract of C. elegans and the isolated compound (adenosine) in a concentration of 5 mg mL^−1, while animals of the fourth group were medicated with latamoxef (Moxalactam)® in a concentration of 30 μg mL^−1 (Reference group). The vehicle, extract, and reference drug were applied topically on the wound surface once a day for 18 days. […] of each tested material was applied slowly, using an insulin syringe, from the central point extending outside the wound area to ensure inclusion of the edges. Swabs were taken on day 5 to confirm the presence of the expected organisms in the pus. • Assessment of wound healing: The wound areas were measured while the animals were under anaesthesia on days 0, 4, 7, 10, 14, and 18 post-wounding by tracing the wound areas onto a transparent tracing paper. […]

[11] = compounds isolated from Cunninghamella elegans
[12] = topical 30 μg mL^−1 once a day, n = 6
[13] = topical 30 μg mL^−1 once a day, n = 6, listed as latamoxef

| SMILES | Diameter of inhibition zone [4, 11] | Diameter of inhibition zone [5, 11] | Diameter of inhibition zone [1] | Diameter of inhibition zone [2] | Diameter of inhibition zone [6, 11] | Diameter of inhibition zone [3] | Diameter of inhibition zone [7, 11] | Diameter of inhibition zone [8, 11] | Diameter of inhibition zone [9, 11] | further results |
| --- | --- | --- | --- | --- | --- | --- | --- | --- | --- | --- |
| Clc1ccccc1C(c1ccccc1)(c1ccccc1)n1ccnc1 [Clotrimazole, reference compound] |  |  |  |  |  |  |  |  |  | zone of inhibition at 1000 µg/mL [1]: 26 ± 0.1 mm; zone of inhibition at 1000 µg/mL [2]: 18 ± 0.1 mm; zone of inhibition at 1000 µg/mL [3]: 23 ± 0.3 mm |
| CCCCCCCCCCCCCCCC(=O)O [Compound 1, palmitic acid] | 00.0 mm | 13.0 mm | 00.0 mm | 00.0 mm | 00.0 mm | 00.0 mm | 00.0 mm | 00.0 mm | 00.0 mm |  |
| CCCCCCCC/C=C\CCCCCCCC(=O)O [Compound 2, oleic acid] | 00.0 mm | 11.0 ± 0.3 mm | 00.0 mm | 00.0 mm | 00.0 mm | 00.0 mm | 00.0 mm | 00.0 mm | 00.0 mm |  |
| CCCCCCCCCCCCCCCCCC(=O)O [Compound 3, stearic acid] | 00.0 mm | 15.0 ± 0.5 mm | 00.0 mm | 00.0 mm | 00.0 mm | 00.0 mm | 00.0 mm | 00.0 mm | 00.0 mm |  |
| CCC(C)n1ncn(-c2ccc(N3CCN(c4ccc(OCC5COC(Cn6cncn6)(c6ccc(Cl)cc6Cl)O5)cc4)CC3)cc2)c1=O (centres unmarked) [Itraconazole, reference compound] |  |  |  |  |  |  |  |  |  | zone of inhibition at 1000 µg/mL [1]: 28 ± 0.5 mm; zone of inhibition at 1000 µg/mL [2]: 26 ± 0.2 mm; zone of inhibition at 1000 µg/mL [3]: 27 ± 0.1 mm |
| CO[C@@]1(NC(=O)C(C(=O)O)c2ccc(O)cc2)C(=O)N2C(C(=O)O)=C(CSc3nnnn3C)CO[C@@H]21 (some centres unmarked) [Latamoxef, latamoxef, reference compound] |  |  |  |  |  |  |  |  |  | wound contraction ([10]; Day 14, topical 30 μg mL^−1): 100%; Wound area on day 0 ([10]; day 0, topical 30 μg mL^−1 once a day, n = 6): 300 ± 0.0 mm^2; Wound area on day 4 ([10]; day 4, topical 30 μg mL^−1 once a day, n = 6): 219.4 ± 9.37** mm^2; Wound area on day 7 ([10]; day 7, topical 30 μg mL^−1 once a day, n = 6): 146.4 ± 5.60*** mm^2; Wound area on day 10 [10, 12]: 42.6 ± 1.85*** mm^2; Wound area on day 10 [10, 13]: 42.6±1.85 mm^2; Wound area on day 14 [10, 12]: 0.0 ± 0.0 mm^2; Wound area on day 14 [10, 13]: 0.0 mm^2 |
| CC1(C)S[C@@H]2[C@H](NC(=O)Cc3ccccc3)C(=O)N2[C@H]1C(=O)O [Penicillin G, reference compound] |  |  |  |  |  |  |  |  |  | Diameter of inhibition zone ([4]; Standard Antibiotics (1 mg/ml)): 33.5 ± 0.8 mm; Diameter of inhibition zone ([5]; Standard Antibiotics (1 mg/ml)): 29.5 ± 0.8 mm; Diameter of inhibition zone ([6]; Standard Antibiotics (1 mg/ml)): 28.3 ± 0.1 mm; Diameter of inhibition zone ([7]; Standard Antibiotics (1 mg/ml)): 32.5 ± 0.5 mm; Diameter of inhibition zone ([8]; Standard Antibiotics (1 mg/ml)): 31.4 ± 0.1 mm; Diameter of inhibition zone ([9]; Standard Antibiotics (1 mg/ml)): 34.3 ± 0.4 mm |
| [H]/N=C(/N)N[C@H]1[C@H](O)[C@@H](O)[C@H](O[C@@H]2O[C@@H](C)[C@](O)(C=O)[C@H]2O[C@@H]2O[C@@H](CO)[C@H](O)[C@@H](O)[C@@H]2NC)[C@@H](N/C(N)=N\[H])[C@@H]1O [Streptomycin, reference compound] |  |  |  |  |  |  |  |  |  | Diameter of inhibition zone ([4]; Standard Antibiotics (1 mg/ml)): 25.0 ± 0.3 mm; Diameter of inhibition zone ([5]; Standard Antibiotics (1 mg/ml)): 25.0 ± 0.2 mm; Diameter of inhibition zone ([6]; Standard Antibiotics (1 mg/ml)): 24.0 ± 0.1 mm; Diameter of inhibition zone ([7]; Standard Antibiotics (1 mg/ml)): 29.0 ± 0.4 mm; Diameter of inhibition zone ([8]; Standard Antibiotics (1 mg/ml)): 24.0 ± 0.4 mm; Diameter of inhibition zone ([9]; Standard Antibiotics (1 mg/ml)): 28.0 ± 0.3 mm |
